The nature of data set [1]: Metabolic stability in rat plasma assessed as half life. It counts as ADME, cell-free.
A further data set concerns the target Mu-type opioid receptor (Homo sapiens, UniProt P35372). The data set is described as follows: Binding affinity at MOR (unknown origin) assessed as inhibition constant.

Sequence of Mu-type opioid receptor (P35372 whole entry): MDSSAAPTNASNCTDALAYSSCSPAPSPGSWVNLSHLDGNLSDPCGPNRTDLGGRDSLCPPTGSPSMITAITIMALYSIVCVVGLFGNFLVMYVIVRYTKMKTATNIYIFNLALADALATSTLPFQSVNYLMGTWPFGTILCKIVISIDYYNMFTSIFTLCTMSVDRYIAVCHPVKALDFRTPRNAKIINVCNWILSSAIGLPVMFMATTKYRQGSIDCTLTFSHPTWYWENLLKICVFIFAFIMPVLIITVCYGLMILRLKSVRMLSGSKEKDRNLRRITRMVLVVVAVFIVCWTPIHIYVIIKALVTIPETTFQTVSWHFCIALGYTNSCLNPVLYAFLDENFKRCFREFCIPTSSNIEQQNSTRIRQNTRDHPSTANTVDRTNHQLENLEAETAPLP

In the case of `Cc1cc(O)cc(C)c1C[C@H](N)C(=O)N[C@H](C)C(=O)NCC(=O)N(C)[C@@H](Cc1ccccc1)C(=O)N1CCC[C@H]1C(=O)N[C@@H](CC(C)C)C(=O)N[C@@H](Cc1c[nH]c2ccccc12)C(=O)NCc1cc(C(F)(F)F)cc(C(F)(F)F)c1`, the half-life in data set [1] was above 24 h. Moreover, the Ki on Mu-type opioid receptor stood at 1 nM.

For the origin of these results see ChEMBL document CHEMBL5143596, “The Design and Optimization of Monomeric Multitarget Peptides for the Treatment of Multifactorial Diseases” (J Med Chem, 2022).
